Assay results as given in paper PMC9558510 (Cancers, 2022).

What was measured:
Format in all cases: in vivo, human
[1] = popPK model-informed VAMS-to-serum conversion model (self-sampled capillary blood); settings: at-home VAMS; for Ind V1/F: MAP estimate
Experimental: In addition to serum sampling, patients were asked to participate in the sampling of capillary blood in the clinic and at home. Micro-sampling was not obligatory for enrollment in the study. Micro-sampling was performed from a finger by drawing 20 µL of capillary blood onto the VAMS device MITRA® purchased from Neoteryx (Torrance, CA, USA). During outpatient visits, micro-sampling was conducted by medical staff in parallel to serum sampling. A maximum of six corresponding serum/VAMS samples were collected per patient. Additionally, patients were asked to perform at-home sampling after being instructed by trained staff. For each at-home sampling occasion, patients received a set including four VAMS devices. Patients were instructed to perform sampling at four different time points during the following four time slots: 9 a.m.–12 p.m., 12–3 p.m., 3–6 p.m., and 6–9 p.m. […] Samples collected during different time slots were still accepted. The time of last drug administration and sampling times were self-documented on a specific form. No special storage conditions were specified, and patients were asked to keep samples at ambient temperature until shipment. Samples were sent to the laboratory in an airtight and opaque bag containing desiccant for analysis. At-home samples were collected at up to four occasions per patient. Hematocrit was documented from the results of routine blood withdrawal for VAMS samples collected during outpatient visits. For at-home samples, the last known hematocrit was used. […]
The conversion was based on a hematocrit-dependent formula (Figure 1). […] As proposed by Iacuzzi et al., the blood cell to plasma partition coefficient (Kbp) and intraindividual variability (IIV) were included in the conversion model and estimated from the consolidated data (Figure 1). For this purpose and to evaluate the conversion models, all the serum (Supplementary Table S1) and VAMS concentrations (collected at home or in the clinic) (Supplementary Table S2) were consolidated in a single dataset and fitted to the combined model using the EBE in Monolix 2021R1 (Lixoft SAS, Antony, France). Incorrectly sampled VAMS were removed from the dataset. The resulting individual predicted VAMS concentrations were compared with the observed VAMS concentrations. […] For trametinib, at least one paired sample per patient was included to generate the individual estimate for Kbp. A visual predictive check was performed to evaluate the predictive performance of the method.
Figure 1 Development of the population pharmacokinetic (popPK) model-informed VAMS-to-serum conversion model. PopPK models by Balakirouchenane et al. were used to generate serum maximum a posteriori (MAP) estimates from volumetric absorptive micro-sampling (VAMS) for dabrafenib (A) and trametinib (B).

[2] = Observed steady-state serum concentrations (LC-MS/MS) in melanoma patients
Experimental: Serum samples were collected regularly during each routine outpatient visit from study enrollment until January 2022 or until treatment discontinuation. If possible, blood sampling was performed before the next drug administration, but any time interval between the last administration and blood withdrawal was accepted. The steady-state was assumed after continuous dosing for fourteen days for both compounds.
Hydroxy-dabrafenib concentrations were analyzed using a different previously published LC-MS/MS method with an LLOQ of 10 ng/mL [37]. […] Hydroxy-dabrafenib was not quantified in capillary blood samples as the methodology was not available at the time of analysis. All the methods have been validated according to the guidelines of the U.S. Food and Drug Administration and/or the European Medicines Agency.
(§1) Data were collected and processed using Microsoft Excel 2016 Version 16.0 (Microsoft Corporation, Redmond, WA, USA). Statistical calculations and visualization of results were performed with R Studio Version 1.2.5042 (RStudio Incorporation, Boston, MA, USA) running R version 4.0.5 (R Foundation for Statistical Computing, Vienna, Austria, 2020). For further analysis, serum concentrations were divided into groups according to time interval post-dose as follows: 0–5 h, 5–10 h, 10–14 h, and >14 h for (hydroxy-)dabrafenib and 0–10 h, 10–20 h, 20–30 h, and >30 h for trametinib. Concentrations < LLOQ were excluded from further statistical analyses. The concentrations of the same patient at the same dosage and within the same post-dose group were summarized into an individual mean serum concentration for descriptive statistical analysis to account for potential bias caused by the unbalanced number of samples per patient. […] The Wilcoxon […] test was used for unpaired samples. The correlations between individual PK parameters sampled from the conditional distribution during the generation of EBE (methods for estimation see below) and age, sex, body mass index (BMI), and co-medication were analyzed using analysis of variance (ANOVA) and Spearman’s correlation coefficient. Logistic regression was used to compare the risk of treatment discontinuations or dose reductions (dabrafenib dose reduction or discontinuation, trametinib dose reduction or discontinuation, or any dose reduction or discontinuation) with the corresponding predicted trough concentrations and area under the curve of a dosing interval (AUCτ) of dabrafenib, hydroxy-dabrafenib, and trametinib as well as with the composite predicted dabrafenib/hydroxy-dabrafenib trough concentration and with composite dabrafenib/hydroxy-dabrafenib AUCτ assuming standard dosing. The Hosmer–Lemeshow test was used to evaluate the goodness of fit for our logistic regression model. Due to the explorative nature of the study, p-values obtained from multiple comparisons were not corrected for multiple testing. A p-value < 0.05 was considered statistically significant.

[3] = Logistic regression of dose reduction/discontinuation vs predicted exposure; settings: logistic regression, standard dosing assumed
Experimental: as §1

[4] = serum, dabrafenib dose of 150 mg q12h
[5] = standard dose, BMI (kg/m2) < 30
[6] = standard dose, BMI (kg/m2) >= 30
[7] = standard dose, P-gp inducer: no
[8] = standard dose, P-gp inducer: yes
[9] = standard dose, P-gp inhibitor: no
[10] = standard dose, P-gp inhibitor: yes
[11] = standard dose, age above 65: no
[12] = standard dose, age above 65: yes
[13] = standard dose, moderate CYP2C8 inhibitor: no
[14] = standard dose, moderate CYP2C8 inhibitor: yes

CC(C)(C)c1nc(-c2cccc(NS(=O)(=O)c3c(F)cccc3F)c2F)c(-c2ccnc(N)n2)s1 [dabrafenib]
Ind V1/F ([1]; patient DT002, 150 mg/12 h): 30.8 L
Ind V1/F ([1]; patient DT005, 150 mg/12 h): 24.7 L
Ind V1/F ([1]; patient DT010, 150 mg/12 h): 14.3 L
Ind V1/F ([1]; patient DT014, 150 mg/12 h): 30.2 L
Ind V1/F ([1]; patient DT018, 150 mg/12 h): 82.5 L
Ind V1/F ([1]; patient DT019, 150 mg/12 h): 39.5 L
Ind V1/F ([1]; patient DT026, 100 mg/12 h): 40.3 L
Ind V1/F ([1]; patient DT027, 150 mg/12 h): 71.5 L
Ind CL/F ([1]; patient DT002, occasion 1, 150 mg/12 h): 13.5 L/h
Ind CL/F ([1]; patient DT002, occasion 2, 150 mg/12 h): 17.2 L/h
Ind CL/F ([1]; patient DT002, occasion 3, 150 mg/12 h): 21.1 L/h
Ind CL/F ([1]; patient DT005, occasion 1, 150 mg/12 h): 20.7 L/h
Ind CL/F ([1]; patient DT010, occasion 1, 150 mg/12 h): 18.5 L/h
Ind CL/F ([1]; patient DT010, occasion 2, 150 mg/12 h): 33.3 L/h
Ind CL/F ([1]; patient DT010, occasion 3, 150 mg/12 h): 12.1 L/h
Ind CL/F ([1]; patient DT014, occasion 1, 150 mg/12 h): 30.1 L/h
Ind CL/F ([1]; patient DT018, occasion 1, 150 mg/12 h): 24.7 L/h
Ind CL/F ([1]; patient DT018, occasion 2, 150 mg/12 h): 14.9 L/h
Ind CL/F ([1]; patient DT018, occasion 3, 150 mg/12 h): 37.5 L/h
Ind CL/F ([1]; patient DT018, occasion 4, 150 mg/12 h): 32.3 L/h
Ind CL/F ([1]; patient DT019, occasion 1, 150 mg/12 h): 33.1 L/h
Ind CL/F ([1]; patient DT019, occasion 2, 150 mg/12 h): 15.8 L/h
Ind CL/F ([1]; patient DT019, occasion 3, 150 mg/12 h): 9.8 L/h
Ind CL/F ([1]; patient DT019, occasion 4, 150 mg/12 h): 24.2 L/h
Ind CL/F ([1]; patient DT026, occasion 1, 100 mg/12 h): 33.3 L/h
Ind CL/F ([1]; patient DT026, occasion 2, 100 mg/12 h): 41.1 L/h
Ind CL/F ([1]; patient DT026, occasion 3, 100 mg/12 h): 38.7 L/h
Ind CL/F ([1]; patient DT027, occasion 1, 150 mg/12 h): 28.6 L/h
Ind CL/F ([1]; patient DT027, occasion 2, 150 mg/12 h): 23.2 L/h
Ind CL/F ([1]; patient DT027, occasion 3, 150 mg/12 h): 36.5 L/h
median of individual mean trough concentration [2, 4]: 45.0 ng/mL
range of individual mean trough concentration [2, 4]: 20 to 155 ng/mL
effect of co-medication with at least one P-gp inducer on individual mean trough concentrations ([2]; serum, standard dose): no effect
serum Cmin mean [2, 5]: 46.5 ng/mL
serum Cmin median [2, 5]: 42.9 ng/mL
serum Cmin mean [2, 6]: 69.1 ng/mL
serum Cmin median [2, 6]: 54 ng/mL
serum Cmin mean [2, 7]: 60.9 ng/mL
serum Cmin median [2, 7]: 48 ng/mL
serum Cmin mean [2, 8]: 40.4 ng/mL
serum Cmin median [2, 8]: 41.8 ng/mL
serum Cmin mean [2, 9]: 77.8 ng/mL
serum Cmin median [2, 9]: 52.9 ng/mL
serum Cmin mean [2, 10]: 42.4 ng/mL
serum Cmin median [2, 10]: 41.8 ng/mL
serum Cmin mean ([2]; standard dose, PPI: no): 63.1 ng/mL
serum Cmin median ([2]; standard dose, PPI: no): 51.6 ng/mL
serum Cmin mean ([2]; standard dose, PPI: yes): 32.4 ng/mL
serum Cmin median ([2]; standard dose, PPI: yes): 32.4 ng/mL
serum Cmin mean [2, 11]: 54.9 ng/mL
serum Cmin median [2, 11]: 43.5 ng/mL
serum Cmin mean [2, 12]: 51.9 ng/mL
serum Cmin median [2, 12]: 42.9 ng/mL
serum Cmin mean [2, 13]: 58.9 ng/mL
serum Cmin median [2, 13]: 44.3 ng/mL
serum Cmin mean [2, 14]: 46.9 ng/mL
serum Cmin median [2, 14]: 47.4 ng/mL
serum Cmin mean ([2]; standard dose, sex female): 75.5 ng/mL
serum Cmin median ([2]; standard dose, sex female): 52.9 ng/mL
serum Cmin mean ([2]; standard dose, sex male): 36.5 ng/mL
serum Cmin median ([2]; standard dose, sex male): 39.3 ng/mL
relationship between dose reduction or discontinuation due to AE and predicted serum trough concentrations or AUCτ [3]: no significant relationships
